Assay results from article PMC3117672 (ChemMedChem, 2010).

Molecular target: mPTPB (Mycobacterium tuberculosis, UniProt I6WXK4)
Conditions: read-out: IC50 for mPTPB; pH 7

Chain of mPTPB (I6WXK4 whole entry, looked up): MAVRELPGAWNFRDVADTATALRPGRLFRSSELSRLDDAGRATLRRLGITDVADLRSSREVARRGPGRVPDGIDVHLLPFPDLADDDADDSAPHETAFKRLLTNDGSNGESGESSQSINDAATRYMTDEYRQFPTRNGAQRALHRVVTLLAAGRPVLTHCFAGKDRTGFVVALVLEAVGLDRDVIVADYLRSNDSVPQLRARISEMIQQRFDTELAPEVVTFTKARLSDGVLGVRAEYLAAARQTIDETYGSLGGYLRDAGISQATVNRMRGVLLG

C#CCOc1c(C(=O)O)cc2cc(Cl)cc(OCC#C)c2c1Cl [Compound L5]
IC50: 75 µM
